From BindingDB's records for doi:10.1021/bi1017182 (University of California Riverside, 2011)

Target: T1, Carbon monoxide dehydrogenase small chain (Afipia carboxidovorans (strain ATCC 49405 / DSM 1227 / KCTC 32145 / OM5), UniProt P19921)
T1 sequence (P19921 whole entry): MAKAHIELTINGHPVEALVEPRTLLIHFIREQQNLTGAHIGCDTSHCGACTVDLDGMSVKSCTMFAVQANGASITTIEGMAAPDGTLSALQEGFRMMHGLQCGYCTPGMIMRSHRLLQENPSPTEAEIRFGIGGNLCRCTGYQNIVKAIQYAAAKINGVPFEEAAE
Experiment: Inhibition Assay
From the text: Inhibition of CODH by Diphenyliodomium chloride. Inactivation of the FAD cofactor of CODH was accomplished by covalent modification of the flavin with diphenyliodonium chloride using a modification of the procedure of Chakraborty and Massey.

| Structure (SMILES) | Kd [µM] |
| --- | --- |
| O=C1C=CC(=O)C=C1 [1,4-Benzoquinone] | 47.6 |
| O=C1C=CC(=O)c2ccccc21 [1,4-dihydronaphthalene-1,4-dione] | 140 |
